Results taken from patent US9687488B2, “Compositions and methods for increasing neurotrophic peptides” (Saint Louis College of Pharmacy, priority 2012, dated 2017).

Columns and labels:
[1] = system: progranulin levels in cortical neuron cultures; assay: Dot blot / immunoblotting of progranulin in primary cortical neuron cultures; format: cell-based, Murine; conditions: primary cortical neurons, 24 hours; for accumulation of progranulin: dot blot (FIG. 5), repeat triplicate experiments
Description: (§1) Murein E14-E15 cortices were dissected and removed to Hanks Balanced Salt Solution (HBSS) The tissue was dissociated with 0.05% trypsin in HBSS for 10 min at 37° C., and then filtered through a 70 µm cell strainer. Cells were plated on poly-D-lysine (PDL)-coated plates at −3.2×10^5 cells/cm^2 in CEMEM (10% fetal bovine serum, 10% horse serum, 2 mM L-glutamine, and 1% penicillin/streptomycin) for 45 min in a 37° C. humidified tri-gas incubator (5% CO2 and 5% 02). The medium was changed to Neurobasal medium (Invitrogen, Carlsbad, Calif.) with a B27 supplement (Gibco) containing antioxidants (NB plus AO) to specifically enhance neuronal growth. After 3 days the media were half changed with NB plus AO. All treatments were done at day 5 with complete media change containing vehicle, SAHA (suberoyl anilide hydroxamic acid; Vorinostat), and test compounds at final concentrations ranging from 125 μM to 1 nM for 24 hours.
Culture medium was collected and cells were lysed in lysis buffer containing 50 mM Tris-HCl, pH 7.5, 150 mM sodium chloride, 1% Nonidet P-40, 0.5% sodium deoxycholate, 1 mM sodium orthovanadate, 5 mM sodium fluoride, and a protease inhibitor cocktail. Sample concentrations were determined to ensure equal loading, placed in Laemmli sample buffer containing B-mercaptoethanol, and denatured at 100° C. for 5 min. Proteins were separated on a 4% stacking and 12% resolving SDS-PAGE Tris-glycine gel, transferred to polyvinylidene difluoride membrane (Millipore), and blocked in 5% instant milk or 5% bovine serum albumin in Tris-buffered saline with 0.1% Tween for 1 hour. For immunoblotting, primary antibodies were incubated overnight at 4° C. with 1/1000 tubulin (Developmental Studies Hybridoma), and 1/1000 Progranulin (ProteinTech Group). 15 μL of media was loaded from each sample. Ponceau red staining on the membrane before immunological probing was used to show equal loading to look for secreted progranulin and survival of motor neurons protein.

primary cortical neurons = assay: MTS cell viability assay; format: cell-based, murine; conditions: 24 hours
Description: as §1, with “hours. The MTS non-radioactive cell viability assay employed [3-(4,5-dimethylthiazol-2-yl)-5-(3-carboxymethoxyphenyl)-2-(4-sulfophenyl)-2H-tetrazolium, inner salt with phenazine methosulfate added as an electron coupling reagent, MTS is bioreduced by cells into a formazan product that is soluble in tissue culture medium and can be measured at 490 nm. MTS was performed at 24 hours per manufacturer recommendations (Promega, G5421).” for “hours.”

[2] = system: survival motor neuron (SMN) protein in cortical neurons; assay: Immunoblotting of SMN protein in cortical neuron cultures; format: cell-based, murine; conditions: immunoblot against tubulin (FIG. 6)
Description: as §1
Culture medium was collected and cells were lysed in lysis buffer containing 50 mM Tris-HCl, pH 7.5, 150 mM sodium chloride, 1% Nonidet P-40, 0.5% sodium deoxycholate, 1 mM sodium orthovanadate, 5 mM sodium fluoride, and a protease inhibitor cocktail. Sample concentrations were determined to ensure equal loading, placed in Laemmli sample buffer containing B-mercaptoethanol, and denatured at 100° C. for 5 min. […]

Compound | effective dose for progranulin accumulation [1] | accumulation of progranulin [1] | toxicity to the neurons (primary cortical neurons) | cellular concentration of survival motor neuron (SMN) protein [2]
COc1ccc(-c2c(C)nn3c(=O)cc(Cc4ccccc4)[nH]c23)cc1OC [Compound 1, 5-benzyl-3-(3,4-dimethoxyphenyl)-2-methyl-4H,7H-pyrazolo[1,5,a]pyrimidin-7-one] | effective in extremely low doses | elicited accumulation of progranulin | apparently nontoxic | –
CC(=O)N(c1ccc(Oc2ccccc2)cc1)C1C=CS(=O)(=O)C1 (centres unmarked) [Compound 2, N-(1,1-dioxo-2,3-dihydro-1-[…]^6-thiophene-3-yl)-N-(4-phenoxyphenyl)acetamide] | – | – | – | dramatically increase
COc1ccc(Cl)cc1NC(=O)CS(=O)(=O)c1ccccc1 [Compound 3, 2-(benzenesulfonyl)-N-(5-chloro-2-methoxyphenyl)acetamide] | effective in extremely low doses | elicited accumulation of progranulin | apparently nontoxic | –
CCN(CC(=O)Nc1ccccc1C)S(=O)(=O)c1ccc(OC)cc1 [Compound 4, 2-(N-ethyl-4-methoxybenzenesulfonamido)-N-(2-methylphenyl) acetamide] | – | – | – | dramatically increase
